This passage reports output value results from patent US12320799B2, “Methods of measuring signaling pathway activity for selection of therapeutic agents” (Celcuity Inc., priority 2017, dated 2025).

Common to all, as to assay type: cell-based, human
One experiment has as its system ALK signaling pathway. The experiment can be described thus: CELx multiple pathway test, impedance biosensor cell adhesion, FAM150A/Ceritinib pair. The note with it: activator FAM150A. From the text:
(§1) Biosensor and transducer: A 96-well impendence E-Plate (ACEA, San Diego, CA) was placed onto an xCELLigence RTCA MP Station impendence biosensor (ACEA, San Diego, CA). The biosensor measured simultaneously the impedance of every well. The change in impedance for a particular well is proportional to the number of cells and type of attachment the cells have with the impedance microplate. Changes in impedance indicate a response to perturbation of these small cell populations. Coatings: The 96-E-Plate were wells were coated with fibronectin and or collagen. Collagen is purchased from Advanced BioMatrix (Carlsbad, CA) and fibronectin from Sigma-Aldrich (St. Louis, MO). Tissue and cell samples: A total of 18 samples of human tumor cells from breast, lung, colon, ovarian, kidney, bladder cancer were studied. For each of these six different cancer types, tumor cell samples from three different patients were tested. Any biomarkers that are used to guide selection of targeted therapy are listed in Table 18 for each patient if they were present. Signaling Pathways activator agent and targeted therapeutic pairs: Eleven different signaling pathways were studied in each human tumor cell sample using […] signaling pathway activator agent and targeted therapeutic pairs. Each of the signaling pathway activator agent and targeted therapeutic pairs affect the same signaling pathway. Each of the signaling pathway activator agents is a well-characterized and specific agonist of its associated signaling pathway and each of the targeted therapeutic agents is a well-characterized and specific antagonist of the same associated signaling pathway. The signaling pathway activator agents and targeted therapeutics used to characterize the activity level of the associated signaling pathway are summarized in Table 16 below:
(§2) Other Reagents: Standard media antibiotics (e.g. penicillin, streptomycin) and other buffers were purchased and used as delivered from ATCC (Manassas, VA, USA) or Life Technologies (Grand Island, NY). Procedure: For each test of a patient cell sample with a pair of signaling pathway activator and targeted therapeutic agents, six wells were seeded with approximately 15,000 cells in 120 uL culture media. Twenty microliters of the targeted therapeutic agent were added to two wells of each patient's cells and 20 microliters of standard media were added to the other four wells for each patient 18 hours in advance of addition of the signaling pathway activator agent. Signaling pathway stimulation was initiated with the addition of 20 ul of the signaling pathway activator agent in the two wells that received a targeted therapeutic agent and in two additional wells for each patient's set of cells without the targeted therapeutic. The impedance recording of attachment and adhesion change was performed at 37° C., 5% C02. Data was recorded on a continuous basis throughout the test, where the data presented is from the initial baseline level of cell attachment compared to the subsequent effects following the targeted therapeutic agent and the signaling pathway activator agent additions on the 18 different patient samples.
(§3) For each of the 18 patient samples, up to 11 different signaling pathways were tested. The output value represents the difference between the amount of cell adhesion change resulting from addition of the signaling pathway activator agent and the amount of cell adhesion change resulting from addition of the targeted therapeutic agent.

A further experiment has as its system Axl signaling pathway. The experiment can be described thus: CELx multiple pathway test, impedance biosensor cell adhesion, Gas6/R428 (BGB324) pair. The note with it: activator Gas6.
Text: as §1, §2, §3

The test system of another experiment is HER2 signaling pathway. The experiment can be described thus: CELx multiple pathway test, impedance biosensor cell adhesion, Pertuzumab. The note with it: no activator listed.
Text: as §1
as §2, with “samples. Results:” for “samples.”
(§4) Table 17 presents the results, expressed as an output value, for each of the 167 tests performed using the methods described above. For each of the 18 patient samples, up to 11 different signaling pathways were tested. The output value represents the difference between the amount of cell adhesion change resulting from addition of the signaling pathway activator agent and the amount of cell adhesion change resulting from addition of the targeted therapeutic agent.

For experiment [1], the system named is HER2/HER3 signaling pathway. The experiment can be described thus: CELx multiple pathway test, impedance biosensor cell adhesion, NRG1/Pertuzumab pair. The note with it: activator NRG1.
Text: as §1, §2, §3

In experiment [2] the test system is HER2/HER1 signaling pathway. The experiment can be described thus: CELx multiple pathway test, impedance biosensor cell adhesion, EGF/Pertuzumab pair. The note with it: activator EGF.
Text: as §1
as §2, with “samples. Results:” for “samples.”
as §4

On to `Cc1cc(Nc2ncc(Cl)c(Nc3ccccc3S(=O)(=O)C(C)C)n2)c(OC(C)C)cc1C1CCNCC1` [Ceritinib], for which the output value is recorded as 5 with ALK signaling pathway (C2 breast tumor cells); 10 in the experiment with ALK signaling pathway (C21 breast tumor cells); 16 in the experiment with ALK signaling pathway (C23 lung tumor cells); 2 with ALK signaling pathway (C24 lung tumor cells); 8 with ALK signaling pathway (C25 lung tumor cells); 15 with ALK signaling pathway (C34 breast tumor cells). The figures for the output value in the experiment on ALK signaling pathway (C54 ovarian tumor cells), in the experiment on ALK signaling pathway (C69 ovarian tumor cells) and in the experiment on ALK signaling pathway (C77 ovarian tumor cells) were 14, 16 and 37, respectively.

As to `Nc1nc(Nc2ccc3c(c2)CC[C@@H](N2CCCC2)CC3)nn1-c1cc2c(nn1)-c1ccccc1CCC2` [R428 (BGB324)], the output value with Axl signaling pathway (C2 breast tumor cells) was found to be 5; in the experiment with Axl signaling pathway (C21 breast tumor cells) it was 6; in the experiment with Axl signaling pathway (C23 lung tumor cells) it was 24; in the experiment with Axl signaling pathway (C24 lung tumor cells) it was 7; with Axl signaling pathway (C25 lung tumor cells), 30; with Axl signaling pathway (C34 breast tumor cells), 44. Also, the values for the output value with Axl signaling pathway (C54 ovarian tumor cells), in the experiment on Axl signaling pathway (C69 ovarian tumor cells) and in the experiment on Axl signaling pathway (C77 ovarian tumor cells) were 12, 10 and 5, respectively.

As for Pertuzumab, the output value is reported as 454 with HER2 signaling pathway (C2 breast tumor cells); −9 with HER2 signaling pathway (C21 breast tumor cells); −55 with HER2 signaling pathway (C23 lung tumor cells); 66 in the experiment with HER2 signaling pathway (C24 lung tumor cells); 47 with HER2 signaling pathway (C25 lung tumor cells); −90 in the experiment with HER2 signaling pathway (C34 breast tumor cells). Moreover, the output value in the experiment on HER2 signaling pathway (C54 ovarian tumor cells) is reported as 537; in the experiment on HER2 signaling pathway (C62 colorectal tumor cells), 24; in the experiment on HER2 signaling pathway (C69 ovarian tumor cells), −20; with HER2 signaling pathway (C71 colorectal tumor cells), 165; in the experiment with HER2 signaling pathway (C72 colorectal tumor cells), 21; in the experiment with HER2 signaling pathway (C77 ovarian tumor cells), 361. Besides, the output value in the experiment on HER2 signaling pathway (C81 bladder tumor cells) was 5; in the experiment with HER2 signaling pathway (C82 bladder tumor cells) it was 6; with HER2 signaling pathway (C87 bladder tumor cells), 523; with HER2 signaling pathway (C88 kidney tumor cells), 16; in the experiment on HER2 signaling pathway (C90 kidney tumor cells), 32; in the experiment with HER2 signaling pathway (C92 kidney tumor cells), 23. Also, the output value in experiment [1] (C2 breast tumor cells) is given as 426; in experiment [1] (C21 breast tumor cells), −48; in experiment [1] (C23 lung tumor cells) it was 61; in experiment [1] (C24 lung tumor cells) it was 13; in experiment [1] (C25 lung tumor cells), 9; in experiment [1] (C54 ovarian tumor cells), 356. Also, the output value in experiment [1] (C62 colorectal tumor cells) came out at 24; in experiment [1] (C71 colorectal tumor cells) it was 175; in experiment [1] (C72 colorectal tumor cells), 21; in experiment [1] (C77 ovarian tumor cells), 294; in experiment [1] (C81 bladder tumor cells) it was 4; in experiment [1] (C82 bladder tumor cells), 5. Moreover, the output value was 477 in experiment [1] (C87 bladder tumor cells); 46 in experiment [1] (C88 kidney tumor cells); −3 in experiment [1] (C90 kidney tumor cells); −20 in experiment [1] (C92 kidney tumor cells); 28 in experiment [2] (C2 breast tumor cells); 40 in experiment [2] (C21 breast tumor cells). Further, the output value in experiment [2] (C23 lung tumor cells) is −6; in experiment [2] (C24 lung tumor cells), 54; in experiment [2] (C25 lung tumor cells), 38; in experiment [2] (C34 breast tumor cells), −176; in experiment [2] (C54 ovarian tumor cells), 180; in experiment [2] (C62 colorectal tumor cells), 0. In addition, the output value in experiment [2] (C69 ovarian tumor cells) was −115; in experiment [2] (C71 colorectal tumor cells), −10; in experiment [2] (C72 colorectal tumor cells), 0; in experiment [2] (C77 ovarian tumor cells), 67; in experiment [2] (C81 bladder tumor cells) it was 1; in experiment [2] (C82 bladder tumor cells), 1. Also, the output value was 46 in experiment [2] (C87 bladder tumor cells), −24 in experiment [2] (C88 kidney tumor cells), 35 in experiment [2] (C90 kidney tumor cells) and 3 in experiment [2] (C92 kidney tumor cells).
